According to the NIST ThermoML archive (doi:10.1021/je034177v):

Assay: xn = mol fraction of the nth substance listed
Settings: 101 kPa, Liquid; for speed of sound: Pulse-echo method; for mass density: Vibrating tube method

ClCCCCCCl [1,5-dichloropentane] + CCCCCCCCCCCC
Settings | mass density [kg/m3] | speed of sound [m/s]
278.15 K, x1 = 0.05237 | 769.83 | 1353.9
278.15 K, x1 = 0.1014 | 780 | 1351.3
278.15 K, x1 = 0.2008 | 802.34 | 1347.1
278.15 K, x1 = 0.3039 | 827.99 | 1344.1
278.15 K, x1 = 0.3945 | 852.98 | 1342.4
278.15 K, x1 = 0.4983 | 884.91 | 1342.1
278.15 K, x1 = 0.6014 | 920.97 | 1343.6
278.15 K, x1 = 0.6987 | 959.17 | 1347.1
278.15 K, x1 = 0.7975 | 1003.24 | 1353.4
278.15 K, x1 = 0.9021 | 1056.96 | 1363.5
278.15 K, x1 = 0.9497 | 1084.25 | 1369.5
278.15 K, x1 = 1 | 1115.28 | 1376.6
283.15 K, x1 = 0.05237 | 766.19 | 1334.4
283.15 K, x1 = 0.1014 | 776.32 | 1331.9
283.15 K, x1 = 0.2008 | 798.55 | 1327.8
283.15 K, x1 = 0.3039 | 824.08 | 1324.9
283.15 K, x1 = 0.3945 | 848.97 | 1323.6
283.15 K, x1 = 0.4983 | 880.76 | 1323.4
283.15 K, x1 = 0.6014 | 916.68 | 1325.1
283.15 K, x1 = 0.6987 | 954.72 | 1328.9
283.15 K, x1 = 0.7975 | 998.63 | 1335.3
283.15 K, x1 = 0.9021 | 1052.15 | 1345.6
283.15 K, x1 = 0.9497 | 1079.35 | 1351.7
283.15 K, x1 = 1 | 1110.26 | 1358.9
288.15 K, x1 = 0.05237 | 762.54 | 1314.6
288.15 K, x1 = 0.1014 | 772.61 | 1312.2
288.15 K, x1 = 0.2008 | 794.74 | 1308.2
288.15 K, x1 = 0.3039 | 820.16 | 1305.7
288.15 K, x1 = 0.3945 | 844.93 | 1304.4
288.15 K, x1 = 0.4983 | 876.58 | 1304.5
288.15 K, x1 = 0.6014 | 912.36 | 1306.4
288.15 K, x1 = 0.6987 | 950.25 | 1310.3
288.15 K, x1 = 0.7975 | 993.99 | 1317
288.15 K, x1 = 0.9021 | 1047.3 | 1327.5
288.15 K, x1 = 0.9497 | 1074.4 | 1333.7
288.15 K, x1 = 1 | 1105.2 | 1341
293.15 K, x1 = 0.05237 | 758.89 | 1295.1
293.15 K, x1 = 0.1014 | 768.91 | 1292.8
293.15 K, x1 = 0.2008 | 790.94 | 1289
293.15 K, x1 = 0.3039 | 816.25 | 1286.6
293.15 K, x1 = 0.3945 | 840.9 | 1285.5
293.15 K, x1 = 0.4983 | 872.42 | 1285.7
293.15 K, x1 = 0.6014 | 908.04 | 1287.9
293.15 K, x1 = 0.6987 | 945.78 | 1292
293.15 K, x1 = 0.7975 | 989.35 | 1298.8
293.15 K, x1 = 0.9021 | 1042.45 | 1309.5
293.15 K, x1 = 0.9497 | 1069.46 | 1315.8
293.15 K, x1 = 1 | 1100.16 | 1323.2
298.15 K, x1 = 0.05237 | 755.23 | 1275.6
298.15 K, x1 = 0.1014 | 765.22 | 1273.5
298.15 K, x1 = 0.2008 | 787.14 | 1269.8
298.15 K, x1 = 0.3039 | 812.33 | 1267.5
298.15 K, x1 = 0.3945 | 836.86 | 1266.6
298.15 K, x1 = 0.4983 | 868.24 | 1267
298.15 K, x1 = 0.6014 | 903.71 | 1269.3
298.15 K, x1 = 0.6987 | 941.31 | 1273.7
298.15 K, x1 = 0.7975 | 984.72 | 1280.7
298.15 K, x1 = 0.9021 | 1037.61 | 1291.6
298.15 K, x1 = 0.9497 | 1064.51 | 1298
298.15 K, x1 = 1 | 1095.11 | 1305.4
303.15 K, x1 = 0.05237 | 751.58 | 1256.4
303.15 K, x1 = 0.1014 | 761.51 | 1254.2
303.15 K, x1 = 0.2008 | 783.32 | 1250.7
303.15 K, x1 = 0.3039 | 808.4 | 1248.6
303.15 K, x1 = 0.3945 | 832.82 | 1247.8
303.15 K, x1 = 0.4983 | 864.07 | 1248.4
303.15 K, x1 = 0.6014 | 899.38 | 1250.9
303.15 K, x1 = 0.6987 | 936.82 | 1255.4
303.15 K, x1 = 0.7975 | 980.06 | 1262.6
303.15 K, x1 = 0.9021 | 1032.76 | 1273.8
303.15 K, x1 = 0.9497 | 1059.56 | 1280.3
303.15 K, x1 = 1 | 1090.07 | 1287.9
308.15 K, x1 = 0.05237 | 747.91 | 1237.3
308.15 K, x1 = 0.1014 | 757.8 | 1235.2
308.15 K, x1 = 0.2008 | 779.49 | 1231.8
308.15 K, x1 = 0.3039 | 804.47 | 1229.8
308.15 K, x1 = 0.3945 | 828.76 | 1229.2
308.15 K, x1 = 0.4983 | 859.88 | 1230
308.15 K, x1 = 0.6014 | 895.05 | 1232.7
308.15 K, x1 = 0.6987 | 932.33 | 1237.4
308.15 K, x1 = 0.7975 | 975.41 | 1244.8
308.15 K, x1 = 0.9021 | 1027.91 | 1256.1
308.15 K, x1 = 0.9497 | 1054.61 | 1262.7
308.15 K, x1 = 1 | 1085.02 | 1270.3
313.15 K, x1 = 0.05237 | 744.24 | 1218.4
313.15 K, x1 = 0.1014 | 754.07 | 1216.4
313.15 K, x1 = 0.2008 | 775.66 | 1213.2
313.15 K, x1 = 0.3039 | 800.53 | 1211.4
313.15 K, x1 = 0.3945 | 824.71 | 1210.9
313.15 K, x1 = 0.4983 | 855.7 | 1211.8
313.15 K, x1 = 0.6014 | 890.7 | 1214.6
313.15 K, x1 = 0.6987 | 927.83 | 1219.6
313.15 K, x1 = 0.7975 | 970.74 | 1227
313.15 K, x1 = 0.9021 | 1023.05 | 1238.5
313.15 K, x1 = 0.9497 | 1049.66 | 1245.2
313.15 K, x1 = 1 | 1079.97 | 1253
318.15 K, x1 = 0.05237 | 740.56 | 1199.7
318.15 K, x1 = 0.1014 | 750.34 | 1197.7
318.15 K, x1 = 0.2008 | 771.82 | 1194.6
318.15 K, x1 = 0.3039 | 796.59 | 1192.9
318.15 K, x1 = 0.3945 | 820.64 | 1192.5
318.15 K, x1 = 0.4983 | 851.51 | 1193.6
318.15 K, x1 = 0.6014 | 886.36 | 1196.7
318.15 K, x1 = 0.6987 | 923.36 | 1201.7
318.15 K, x1 = 0.7975 | 966.1 | 1209.5
318.15 K, x1 = 0.9021 | 1018.21 | 1221.1
318.15 K, x1 = 0.9497 | 1044.74 | 1227.9
318.15 K, x1 = 1 | 1074.95 | 1235.8
323.15 K, x1 = 0.05237 | 736.88 | 1181
323.15 K, x1 = 0.1014 | 746.61 | 1179.3
323.15 K, x1 = 0.2008 | 767.98 | 1176.2
323.15 K, x1 = 0.3039 | 792.63 | 1174.7
323.15 K, x1 = 0.3945 | 816.57 | 1174.4
323.15 K, x1 = 0.4983 | 847.29 | 1175.6
323.15 K, x1 = 0.6014 | 882 | 1178.8
323.15 K, x1 = 0.6987 | 918.84 | 1184.1
323.15 K, x1 = 0.7975 | 961.42 | 1191.9
323.15 K, x1 = 0.9021 | 1013.35 | 1203.8
323.15 K, x1 = 0.9497 | 1039.77 | 1210.6
323.15 K, x1 = 1 | 1069.89 | 1218.7
328.15 K, x1 = 0.05237 | 733.17 | 1162.7
328.15 K, x1 = 0.1014 | 742.86 | 1160.8
328.15 K, x1 = 0.2008 | 764.14 | 1157.9
328.15 K, x1 = 0.3039 | 788.68 | 1156.5
328.15 K, x1 = 0.3945 | 812.52 | 1156.4
328.15 K, x1 = 0.4983 | 843.12 | 1157.7
328.15 K, x1 = 0.6014 | 877.69 | 1161.2
328.15 K, x1 = 0.6987 | 914.4 | 1166.5
328.15 K, x1 = 0.7975 | 956.8 | 1174.5
328.15 K, x1 = 0.9021 | 1008.57 | 1186.6
328.15 K, x1 = 0.9497 | 1034.9 | 1193.5
328.15 K, x1 = 1 | 1064.93 | 1201.6
